Laboratory results: patent US20170368054A1, “Treatment of Glaucoma Using Laquinimod” (Teva Pharmaceutical Industries, Ltd., priority 2013, published 2017)
“And” between values parts separate entries of the source, which are not always exact repeats. Identical values can stand only once. “Also recorded” adds a separate entry of the source.

Legend:
[1] = system: retinal ganglion cells (RGC); test: Fluoro-Gold labeled RGC survival in rat hypertonic saline injection glaucoma model; type: in vivo, Brown Norway rats (Rattus norvegicus); conditions: for Mean % RGC Loss (100-(100 x OHT/Non-OHT Mean RGC Counts per Retina)): OHT vs non-OHT retina, 5 weeks after 2nd HSI, vehicle 34.8
From the text: The purpose of this study was to assess the efficacy of laquinimod in protecting against chronic ocular hypertension (OHT) and RGC degeneration in a rat model of glaucoma, created by injecting hypertonic saline into the episcleral veins in one eye of the Brown Norway rat. In this model, RGC degeneration occurs in response to increased IOP and OHT similar to that in human patients with glaucoma. The rat model of chronic ocular hypertension (OHT)/glaucoma was created in the left eye of each animal via two hypertonic saline injections (HSI) each one week apart. The un-injected right eye served as the control. Throughout the study, the vehicle control and the test articles were prepared weekly. Rats were dosed once daily for oral administration (Group 5) and twice daily for topical administration groups (Groups 1-4), starting on the day of the first HSI until euthanasia. Detailed ocular examinations were performed one week after the 2nd HSI and on the day of euthanasia. […] Post-dose IOP was measured weekly for 5 weeks starting one week after the 2nd HSI until euthanasia. Animals were euthanized 5 weeks after the 2nd HSI. The retinas were flat-mounted, slide IDs were masked and 8 regions per retina were imaged using a confocal microscope. RGC at these regions were counted using the Image J software. After the optic nerves were extracted, they were plastic-embedded, sectioned and stained with Toluidine Blue at Schepens Eye Research Institute, Boston, Mass.. The injury in the optic nerves was evaluated and graded by microscopic examination in a masked fashion. Chronic ocular hypertension (OHT) was created through two hypertonic saline injections (HSI) which were performed one week apart in the left eye. For each HSI, after the rats were anesthetized with a suitable anesthetic, a suture thread was passed through the left eyelid to fix it open. A local anesthetic (e.g., 0.5% Proparacaine HCl Ophthalmic Solution) was applied on the surgery eye topically. The conjunctiva was incised with Vannas scissors to expose an episcleral vein. An occluder ring with a groove was fitted around the left eye to provide unobstructed passage for the selected episcleral vein while obstructing the other episcleral veins. Using a pulled-glass needle, 50-250 μL of 1.8 M hypertonic saline solution was injected into the exposed episcleral vein to scar the aqueous humor outflow pathway in an attempt to elevate IOP. The ring was removed shortly after the injection. The un-operated right eye served as the control. Ophthalmic ointment was applied to both eyes to prevent corneal damage. For each HSI procedure, buprenorphine was administered subcutaneously for approximately 24 hours to manage post-operative pains as appropriate. Clinical observations was performed at least once daily as described in Table 6. Approximately one week prior to euthanasia, RGC was labeled with the retrograde tracer FG. First, animals were sedated with appropriate anesthesia. […] Rats received subcutaneous injections of buprenorphine for approximately 48 hours to manage post-surgery pain as appropriate. The eyes were fixed in 4% paraformaldehyde (PFA) fixative at 4±2° C. for at least 24 hours. Retinas were dissected and flat whole-mounted for confocal visualization and imaging. The actual identification of the retinal flat-mounts was masked prior to confocal imaging. Eight regions per retina were imaged using a confocal microscope and the RGC in each region were counted as follows: Retinal images were evaluated by confocal fluorescence microscopic examination. A three-dimensional view of the x-axis, y-axis, and z-axis were designed and processed using a specific system of image analysis software (Leica Confocal Software) to obtain an image of the viable RGCs labeled with FG. Two areas which were approximately 1.5 mm and 2.75 mm away from the center of the ON head were selected in each retinal quadrant (8 regions per retina) and serial images of the retinal ganglion cell layer were taken by the Confocal Microscope. […]

[2] = system: rat model of chronic ocular hypertension (OHT)/glaucoma; test: Intraocular pressure (IOP) measurement, Tono-Pen Vet tonometer, rat OHT model; type: in vivo, Brown Norway rats (Rattus norvegicus); conditions: average of 5 weekly post-HSI measurements, groups matched for Mean ΔIOP
Protocol: For each IOP measurement time-point following the 2nd HSI, the IOP elevation was calculated as the difference between the IOP in the left eye with OHT and that in the non-OHT right eye (ΔIOP). The ΔIOP for the 5 weekly post-HSI IOP measurements were averaged and constituted the Mean ΔIOP for each animal. […] Other animals were removed from the study. Baseline IOP measurements were taken before the initial dose administration. After application of topical anesthesia (0.5% Proparacaine HCl Ophthalmic Solution), IOP was measured on conscious rats on both eyes using a Tono-Pen Vet tonometer (Reichert, Inc.; Depew, N.Y.). Ten (10) IOP readings are recorded from each eye and averaged. IOP measurements were taken around the same time (e.g., between 10 a.m. and 2 p.m.) across measurement time-points to minimize the circadian variability of IOP. IOP measurements were taken once weekly starting one week after the second HSI until euthanasia (a total of 5 measurements). After application of topical anesthesia (0.5% Proparacaine HCl Ophthalmic Solution), IOP was measured on conscious rats on both eyes using a Tono-Pen Vet tonometer (Reichert, Inc.; Depew, N.Y.). For each time-point, ten (10) IOP readings were recorded from each eye and averaged. IOP measurements were taken around the same time (e.g., between 10 a.m. and 2 p.m.) across measurement time-points to minimize the circadian variability of IOP. The IOP measurements were evaluated as follows: For each time-point following the HSI, the IOP elevation was calculated as the difference between the level in the left eye with OHT and that in the normal right eye (ΔIOP). The ΔIOP of the 5-weekly post-HSI IOP measurements were averaged and constitute the Mean ΔIOP for each animal. For each group, ten (10) animals with a sustained IOP elevation in the OHT eye were selected from a larger pool and groups are matched for the Mean ΔIOP. Other animals were removed from the study and euthanized. […] For each time-point following the HSI, the IOP elevation was calculated as the difference between the level in the left eye with OHT and that in the normal right eye (ΔIOP). The ΔIOP of the 5-weekly post-HSI IOP measurements were averaged and constitute the Mean ΔIOP for each animal. For each group, ten (10) animals with a sustained IOP elevation in the OHT eye were selected from a larger pool and groups were matched for the Mean ΔIOP. Other animals were removed from the study and euthanized.

CCN(C(=O)c1c(O)c2c(Cl)cccc2n(C)c1=O)c1ccccc1 [Laquinimod]
FG-Labeled RGC counts per mm2, OHT vs Non-OHT retinas, two-tailed paired-t test ([1]; Group 1, 1% Laquinimod topical, P=0.189): no statistically significant difference
Mean % RGC Loss (100-(100 x OHT/Non-OHT Mean RGC Counts per Retina)) ([1]; Group 1, topical 1% laquinimod twice daily): 17.6±33.8% and 17.6%
FG-Labeled RGC counts per mm2, OHT vs Non-OHT retinas, two-tailed paired-t test ([1]; Group 3, 4% Laquinimod topical, P=0.071): statistically marginally different
Mean % RGC Loss (100-(100 x OHT/Non-OHT Mean RGC Counts per Retina)) ([1]; Group 3, topical 4% laquinimod twice daily): 26.8±36.4% and 26.8%
FG-Labeled RGC counts per mm2, OHT vs Non-OHT retinas, two-tailed paired-t test ([1]; Group 4, 0.25% Laquinimod topical, P=0.033): fewer RGCs in the OHT eye
Mean % RGC Loss (100-(100 x OHT/Non-OHT Mean RGC Counts per Retina)) ([1]; Group 4, topical 0.25% laquinimod twice daily): 21.6±21.7% and 21.6%
FG-Labeled RGC counts per mm2, OHT vs Non-OHT retinas, two-tailed paired-t test ([1]; Group 5, 0.1% Laquinimod oral, P=0.075): statistically marginally different
Mean % RGC Loss (100-(100 x OHT/Non-OHT Mean RGC Counts per Retina)) ([1]; Group 5, oral 0.1% laquinimod once daily (1 mL)): 22.9±33.1% and 22.9%
RGC counts in OHT and Non-OHT eyes versus groups, Two-Way ANOVA eye versus group interaction ([1]; all groups (0.25%, 1%, 4% topical, 0.1% oral, vehicle), P=0.919): groups did not differ
Neuroprotection for the RGC (conclusion from RGC counts) ([1]; daily topical application of 1% Laquinimod, Group 1): may be neuroprotective; also recorded: trend towards neuroprotection
Mean ΔIOP (OHT minus Non-OHT) (Mean±SD) ([2]; Group 1, topical 1% laquinimod): 9.1±2.2 mmHg
Mean ΔIOP (OHT minus Non-OHT) (Mean±SD) ([2]; Group 3, topical 4% laquinimod): 9.3±2.7 mmHg
Mean ΔIOP (OHT minus Non-OHT) (Mean±SD) ([2]; Group 4, topical 0.25% laquinimod): 9.2±1.5 mmHg
Mean ΔIOP (OHT minus Non-OHT) (Mean±SD) ([2]; Group 5, oral 0.1% laquinimod): 9.1±2.9 mmHg
